Data set [1] can be described thus: Cytotoxicity against HEK293T cells assessed as reduction in cell viability after 48 hrs by CellTiter 96 aqueous one solution assay. The class given is cell-based, HEK-293T. The following applies: human.
Data set [2] has as its system Human immunodeficiency virus 1. The data set can be described thus: Selectivity ratio of IC50 for HIV1 reverse transcriptase K103N mutant in HIV1 infected HEK293T cells to IC50 for wild-type HIV1 reverse transcriptase in HIV1 infected HEK293T cells.
For data set [3], the system named is Human immunodeficiency virus 1. Put plainly: Selectivity ratio of IC50 for HIV1 reverse transcriptase Y181C mutant in HIV1 infected HEK293T cells to IC50 for wild-type HIV1 reverse transcriptase in HIV1 infected HEK293T cells.
The subject of data set [4] is Human immunodeficiency virus 1. The data set can be described thus: Selectivity ratio of IC50 for HIV1 reverse transcriptase V106M mutant in HIV1 infected HEK293T cells to IC50 for wild-type HIV1 reverse transcriptase in HIV1 infected HEK293T cells.

The term CC50 denotes the concentration giving 50% cytotoxicity. On to `CCn1c(=O)[nH]c2cccc(Oc3ccnc(Cl)c3)c21`, for which the CC50 at 48 h in data set [1] is 95.1 µM.
Regarding `CCC(c1ccccc1)n1c(=O)[nH]c2ccc(Cl)cc21` (racemic), the Ratio IC50 in data set [2] and in data set [3] was above 10 each time. In addition, in data set [1], the CC50 at 48 h was 55 µM.
On to `CCn1c(=O)[nH]c2cccc(Oc3cc(Cl)cc(C#N)c3)c21`, for which the CC50 at 48 h in data set [1] is 24.1 µM. Also, the Ratio IC50 in data set [4] was above 10.
As for `CCn1c(=O)[nH]c2cccc(Oc3cc(C)cc(C)c3)c21`, in data set [1], the CC50 at 48 h stood at 7.16 µM.
Same read-out and setting: as for `CCn1c(=O)[nH]c2cccc(Oc3cc(C#N)cc(/C=C/C#N)c3)c21`, the figure is 9.7 µM; as for `Cc1ccnc2c1NC(=O)c1cccnc1N2C1CC1` [NEVIRAPINE], 92.7 µM; as for `CCCn1c(=O)[nH]c2cccc(Oc3cc(Cl)cc(C#N)c3)c21`, 24.8 µM.
On to `CCn1c(=O)[nH]c2cccc(Oc3ccccc3)c21`, for which the CC50 at 48 h in data set [1] turned out to be 55 µM.
For the compound `CC1(C)OC(=O)Nc2cccc(Oc3cc(Cl)cc(C#N)c3)c21`, the CC50 at 48 h in data set [1] was 82.7 µM.
For the compound `Cn1c(=O)[nH]c2cccc(Oc3cc(Cl)cc(C#N)c3)c21`, the CC50 at 48 h in data set [1] was 53.4 µM. In addition, the Ratio IC50 in data set [4] was above 10.
As for `CCn1c(=O)[nH]c2cccc(Oc3cc(C#N)ccn3)c21`, the CC50 at 48 h in data set [1] was above 100 µM.
Same read-out and setting: as for `CCn1c(=O)[nH]c2cccc(Oc3cc(C#N)cc(C#N)c3)c21`, the figure is 96.6 µM; as for `CCn1c(=O)[nH]c2cccc(Oc3cccc4ccccc34)c21`, 31.3 µM.
Take `CCn1c(=O)[nH]c2cccc(Oc3ccnc(C#N)c3)c21`: the CC50 at 48 h in data set [1] was above 100 µM.

The values above are taken from ChEMBL document CHEMBL4330184, “Aryl Substituted Benzimidazolones as Potent HIV-1 Non-Nucleoside Reverse Transcriptase Inhibitors” (ACS Med Chem Lett, 2019).
